Measurements published in BigSolDB 2.1.

Nc1cc(Cl)ccc1C(=O)O
Conditions	solubility (mole fraction)
in 1,4-dioxane, 283.15 K	0.0158
in 1,4-dioxane, 285.65 K	0.0173
in 1,4-dioxane, 288.15 K	0.0191
in 1,4-dioxane, 290.65 K	0.0209
in 1,4-dioxane, 293.15 K	0.0228
in 1,4-dioxane, 295.65 K	0.0248
in 1,4-dioxane, 298.15 K	0.0271
in 1,4-dioxane, 300.65 K	0.0295
in 1,4-dioxane, 303.15 K	0.032
in 1,4-dioxane, 305.65 K	0.0348
in 1,4-dioxane, 308.15 K	0.0375
in 1,4-dioxane, 310.65 K	0.0405
in 1,4-dioxane, 313.15 K	0.0436
in NMP, 278.15 K	0.0323
in NMP, 280.65 K	0.0338
in NMP, 283.15 K	0.0354
in NMP, 285.65 K	0.037
in NMP, 288.15 K	0.0388
in NMP, 290.65 K	0.0406
in NMP, 293.15 K	0.0425
in NMP, 295.65 K	0.0445
in NMP, 298.15 K	0.0465
in NMP, 300.65 K	0.0487
in NMP, 305.65 K	0.0531
in NMP, 308.15 K	0.0556
in NMP, 310.65 K	0.0581
in NMP, 313.15 K	0.0607
in acetone, 278.15 K	0.0159
in acetone, 280.65 K	0.0174
in acetone, 283.15 K	0.0189
in acetone, 285.65 K	0.0207
in acetone, 288.15 K	0.0226
in acetone, 290.65 K	0.0243
in acetone, 293.15 K	0.0261
in acetone, 295.65 K	0.0283
in acetone, 298.15 K	0.0307
in acetone, 300.65 K	0.0328
in acetone, 303.15 K	0.0351
in acetone, 305.65 K	0.0378
in acetone, 308.15 K	0.0404
in acetone, 310.65 K	0.0433
in acetone, 313.15 K	0.0463
in acetonitrile, 278.15 K	0.00138
in acetonitrile, 280.65 K	0.00154
in acetonitrile, 283.15 K	0.00169
in acetonitrile, 285.65 K	0.00188
in acetonitrile, 288.15 K	0.00208
in acetonitrile, 290.65 K	0.00229
in acetonitrile, 293.15 K	0.00252
in acetonitrile, 295.65 K	0.00277
in acetonitrile, 298.15 K	0.00303
in acetonitrile, 300.65 K	0.00332
in acetonitrile, 303.15 K	0.00362
in acetonitrile, 305.65 K	0.00395
in acetonitrile, 308.15 K	0.00431
in acetonitrile, 310.65 K	0.00468
in acetonitrile, 313.15 K	0.0051
in ethanol, 278.15 K	0.00994
in ethanol, 280.65 K	0.0109
in ethanol, 283.15 K	0.0118
in ethanol, 285.65 K	0.0129
in ethanol, 288.15 K	0.014
in ethanol, 290.65 K	0.0151
in ethanol, 293.15 K	0.0164
in ethanol, 295.65 K	0.0177
in ethanol, 298.15 K	0.0191
in ethanol, 300.65 K	0.0205
in ethanol, 303.15 K	0.0221
in ethanol, 305.65 K	0.0238
in ethanol, 308.15 K	0.0255
in ethanol, 310.65 K	0.0273
in ethanol, 313.15 K	0.0293
in ethyl acetate, 278.15 K	0.0125
in ethyl acetate, 280.65 K	0.0136
in ethyl acetate, 283.15 K	0.0149
in ethyl acetate, 285.65 K	0.0161
in ethyl acetate, 288.15 K	0.0176
in ethyl acetate, 290.65 K	0.0191
in ethyl acetate, 293.15 K	0.0206
in ethyl acetate, 295.65 K	0.0222
in ethyl acetate, 298.15 K	0.0241
in ethyl acetate, 300.65 K	0.0259
in ethyl acetate, 303.15 K	0.0278
in ethyl acetate, 308.15 K	0.0321
in ethyl acetate, 310.65 K	0.0343
in ethyl acetate, 313.15 K	0.0368
in ethylbenzene, 278.15 K	0.00011
in ethylbenzene, 280.65 K	0.00013
in ethylbenzene, 283.15 K	0.000149
in ethylbenzene, 285.65 K	0.000172
in ethylbenzene, 288.15 K	0.000196
in ethylbenzene, 290.65 K	0.000224
in ethylbenzene, 293.15 K	0.000255
in ethylbenzene, 295.65 K	0.00029
in ethylbenzene, 298.15 K	0.000326
in ethylbenzene, 300.65 K	0.000371
in ethylbenzene, 303.15 K	0.000418
in ethylbenzene, 305.65 K	0.000472
in ethylbenzene, 308.15 K	0.000528
in ethylbenzene, 310.65 K	0.000594
in ethylbenzene, 313.15 K	0.000664
in isopropanol, 278.15 K	0.00925
in isopropanol, 280.65 K	0.0101
in isopropanol, 283.15 K	0.0111
in isopropanol, 285.65 K	0.012
in isopropanol, 288.15 K	0.0131
in isopropanol, 290.65 K	0.0143
in isopropanol, 293.15 K	0.0155
in isopropanol, 295.65 K	0.0167
in isopropanol, 298.15 K	0.0181
in isopropanol, 300.65 K	0.0195
in isopropanol, 303.15 K	0.0211
in isopropanol, 305.65 K	0.0227
in isopropanol, 308.15 K	0.0244
in isopropanol, 310.65 K	0.0262
in isopropanol, 313.15 K	0.0282
in n-butanol, 278.15 K	0.00768
in n-butanol, 280.65 K	0.0084
in n-butanol, 283.15 K	0.00925
in n-butanol, 285.65 K	0.0102
in n-butanol, 288.15 K	0.0111
in n-butanol, 290.65 K	0.0121
in n-butanol, 293.15 K	0.0132
in n-butanol, 295.65 K	0.0144
in n-butanol, 298.15 K	0.0157
in n-butanol, 300.65 K	0.017
in n-butanol, 303.15 K	0.0184
in n-butanol, 305.65 K	0.0199
in n-butanol, 308.15 K	0.0215
in n-butanol, 310.65 K	0.0232
in n-butanol, 313.15 K	0.025
in n-propanol, 278.15 K	0.00869
in n-propanol, 280.65 K	0.0095
in n-propanol, 283.15 K	0.0103
in n-propanol, 285.65 K	0.0113
in n-propanol, 288.15 K	0.0123
in n-propanol, 290.65 K	0.0134
in n-propanol, 293.15 K	0.0144
in n-propanol, 295.65 K	0.0157
in n-propanol, 298.15 K	0.017
in n-propanol, 300.65 K	0.0184
in n-propanol, 303.15 K	0.0198
in n-propanol, 305.65 K	0.0214
in n-propanol, 308.15 K	0.023
in n-propanol, 310.65 K	0.0248
in n-propanol, 313.15 K	0.0266
in toluene, 278.15 K	0.000136
in toluene, 280.65 K	0.000157
in toluene, 283.15 K	0.00018
in toluene, 285.65 K	0.000204
in toluene, 288.15 K	0.000233
in toluene, 290.65 K	0.000266
in toluene, 293.15 K	0.000299
in toluene, 295.65 K	0.000339
in toluene, 298.15 K	0.000384
in toluene, 300.65 K	0.000427
in toluene, 303.15 K	0.000478
in toluene, 305.65 K	0.000533
in toluene, 308.15 K	0.000597
in toluene, 310.65 K	0.000668
in toluene, 313.15 K	0.000742
